In ChEMBL document CHEMBL1150586, “Goniolactones A-F, six new styrylpyrone derivatives from the roots of Goniothalamus cheliensis” (J Nat Prod, 2002):

What was measured:
Assay type in all cases: functional, cell-based
KB = experiment: Cytotoxicity against human KB cells after 5 days by MTT assay; conditions: 120 h
HCT-8 = experiment: Cytotoxicity against human HCT8 cells after 5 days by MTT assay; conditions: HCT-8, 120 h
A2780 = experiment: Cytotoxicity against human A2780 cells after 5 days by MTT assay; conditions: A2780, 120 h

Work on O=C1C=CC[C@H]([C@H](O)[C@@H](c2ccccc2)c2c(O)cc3c(c2O)C(=O)C[C@@H](c2ccccc2)O3)O1 [GONIOLACTONE B] yielded an IC50 (KB) of 7.23 µM, an IC50 (HCT-8) of 4.43 µM and an IC50 (A2780) of 7.4 µM.
